US20230119502A1, “Collagen Nucleation Inhibitors” (Northeastern University, priority 2020, published 2023)
Values after ≈ are worked out from the molar mass of the structure shown. Read-outs that look alike come from different tables or passages of the source.

Tests used:
[1] = target: T1, acetic acid-extracted bovine type I collagen (Bos taurus, UniProt P02453+P02465); assay type: biochemical; details: for critical concentration at which collagen assembly was completely inhibited / effect on collagen assembly kinetics and ODmax / lag time (lag phase at 30% assembly) / effect on collagen assembly: 1 mg/mL collagen; for critical concentration at which collagen assembly was completely inhibited: 37° C., pH 7.3; for effect on collagen assembly kinetics and ODmax: 0.125 M; for lag time (lag phase at 30% assembly): 0.25 M total saccharide; for effect on collagen assembly: 0.5 M (each component 0.5 M for Gal with acetic acid; 0.5 M total for ratios); for Rates of Collagen Assembly (KA), 30% to 70%: n=9, ± SD
T1 construct: acetic acid-extracted bovine type I collagen; purchased Advanced Biomatrix 5026-1 KIT
Method: In the experiments below, acetic acid-extracted bovine type I collagen (Advanced Biomatrix, 5026-1 KIT) was mixed with monosaccharide solutions, and/or acetic acid, such that the final collagen concentration was either 0.5 or 1 mg/mL and final saccharide concentration ranged from 0-1 M. Concentrated Tris-buffered saline (10×TBS) at 0.25 M trizma base (Sigma Aldrich, T4661) and 1.3 M sodium chloride
(Fisher Chemical, S271-500), was used as 10% of the solution volume to maintain a physiological pH and ionic strength, and 0.25 M sodium hydroxide was used for a final pH adjustment to 7.3. Any remaining volume in the solution recipes was fulfilled via the addition of deionized water.
Experiments included mixing collagen with a concentrated monosaccharide solution, neutralizing it, and measuring turbidity spectrophotometrically (313 nm) over the course of two hours. In the absence of monosaccharides, 1 mg/mL collagen fully polymerized within minutes, as expected (Williams, B. R., et al., 1978). […] The increased ODmax caused by the monosaccharides cannot be fully attributed to the contribution of the monosaccharides in solution (Table 2) (Hayashi & Nagai, 1972; Wood & Keech, 1960).
To study the assembly of collagen, the kinetics of collagen assembly in the presence of monosaccharides were monitored using a plate-reader spectrophotometer (Molecular Devices, SpectraMax M5). Working in triplicate, 100 μL of the mixed collagen and saccharide solution was pipetted into a 96-well plate and layered with 100 μL of silicone oil to prevent evaporation. […] Each test condition was repeated three times for a total of n=9 data sets.
The analyze the assembly kinetics, turbidity assays were analyzed and normalized between 0-1 using Equation 1, where OD represents the optical density.
To analyze the kinetics, 0% assembly was defined as the absorbance value when the minimum absorbance was recorded, and 100% corresponded to the maximum value. 10, 30, 70 and 90% absorbance and corresponding timepoints were calculated using linear interpolation between the two bounding data points. Error bars were calculated as standard error of the mean. Rate of assembly was determined by calculating the slope between 30% and 70% assembly for each data set.

[2] = Baseline absorbance of the monosaccharide solutions without collagen; assay type: physicochemical; details: 313 nm, 37° C., no collagen, n=3
Excerpt: No collagen was present in these samples.

[3] = target: T2, pre-existing A546-labeled collagen network (Bos taurus, UniProt P02453+P02465); assay: Dual-fluorescence incorporation of soluble collagen into a pre-existing collagen network (colocalization, PCC); assay type: biochemical, bovine; details: 0.5 M GlcNAc, 0.5 M Gal or 1 M GlucA; 0.025 mg/mL collagen, 1 hour, 37° C., n=10 images
T2 construct: acetic acid-extracted bovine type I collagen; purchased Advanced Biomatrix 5026-1 KIT; host or cells: extracted from bovine tissue, then labelled in house
Excerpt: Collagen was fluorescently labeled by the following procedure. Collagen was amine-labeled with either Alexa Fluor 546 NHS Ester (Thermo Fisher Scientific, A20002) or Alexa Fluor 488 TFP (Thermo Fisher Scientific, A30005) according to the protocol of Paten et al. (Paten, J. A., et al., 2019). Collagen was labeled with A488 solution in a 5:1 molar ratio of A488:collagen and then purified using a 10,000 MWCO Slide-A-Lyzer dialysis cassette (Thermo Fisher Scientific, 66380). The same process was performed with A546 in a 5:1 molar ratio of A546:collagen. Prior to use, the collagen concentration was determined by a modified Lowry assay (Bio-Rad, DC-Protein Assay), and the labeling efficiency was determined according to previous reports (Paten, J. A., et al., 2019).
To test if the critical saccharide concentrations would allow the soluble collagen to incorporate into a pre-existing matrix, despite the observed nucleation inhibition, first a collagen network was polymerized labeled with a A546 (red) at 37° C. using the example procedure described above. Then a mixture of A488-labeled collagen (green) with a nucleation-inhibiting concentration of either GlcNAc, Gal, or GlucA was added to the pre-existing A546-labeled collagen network. In all cases, distinct fibrillar networks of A488-collagen after a 1 hour incubation and exhaustive rinsing to reduce non-specific binding was observed.
The ability for soluble collagen to incorporate into a pre-established collagen network in the presence of monosaccharides was investigated with fluorescent imaging using an inverted microscope (Nikon, ECLIPSE Ti2) with a 0.45 numerical aperture 20× objective (Nikon, MRH08230) and a CMOS camera (Andor, Zyla 4.2). […]
The Imaging and Colocalization Analysis of the Dual-Fluorescence collagen Network was conducted using the following procedure. For imaging the A546-labeled collagen network, the excitation signal (CoolLED, PE-300-W-L-SB-40) was passed through a 530±15 nm filter, and the emission signal was detected after passing through a 575±20 nm filter (Chroma Technology, 49014). […]

[4] = target: pre-established 1 mg/mL collagen networks (Bos taurus, UniProt P02453+P02465); details: 37° C., 180 minutes, critical concentration
[5] = physchem; details: 37 °C, pH 5, aqueous buffer
[6] = carboxylic acid of GlucA; cited from earlier work
[7] = Stock solutions made near maximum solubility; details: 37 °C, pH 5, aqueous buffer
[8] = collagen 0.5 mg/mL, 0.125M saccharide
[9] = collagen 0.5 mg/mL, 0.25M saccharide
[10] = collagen 1 mg/mL, 0.125M saccharide
[11] = collagen 1 mg/mL, 0.25M saccharide

T2 sequence (P02453 162-1217 limits assumed): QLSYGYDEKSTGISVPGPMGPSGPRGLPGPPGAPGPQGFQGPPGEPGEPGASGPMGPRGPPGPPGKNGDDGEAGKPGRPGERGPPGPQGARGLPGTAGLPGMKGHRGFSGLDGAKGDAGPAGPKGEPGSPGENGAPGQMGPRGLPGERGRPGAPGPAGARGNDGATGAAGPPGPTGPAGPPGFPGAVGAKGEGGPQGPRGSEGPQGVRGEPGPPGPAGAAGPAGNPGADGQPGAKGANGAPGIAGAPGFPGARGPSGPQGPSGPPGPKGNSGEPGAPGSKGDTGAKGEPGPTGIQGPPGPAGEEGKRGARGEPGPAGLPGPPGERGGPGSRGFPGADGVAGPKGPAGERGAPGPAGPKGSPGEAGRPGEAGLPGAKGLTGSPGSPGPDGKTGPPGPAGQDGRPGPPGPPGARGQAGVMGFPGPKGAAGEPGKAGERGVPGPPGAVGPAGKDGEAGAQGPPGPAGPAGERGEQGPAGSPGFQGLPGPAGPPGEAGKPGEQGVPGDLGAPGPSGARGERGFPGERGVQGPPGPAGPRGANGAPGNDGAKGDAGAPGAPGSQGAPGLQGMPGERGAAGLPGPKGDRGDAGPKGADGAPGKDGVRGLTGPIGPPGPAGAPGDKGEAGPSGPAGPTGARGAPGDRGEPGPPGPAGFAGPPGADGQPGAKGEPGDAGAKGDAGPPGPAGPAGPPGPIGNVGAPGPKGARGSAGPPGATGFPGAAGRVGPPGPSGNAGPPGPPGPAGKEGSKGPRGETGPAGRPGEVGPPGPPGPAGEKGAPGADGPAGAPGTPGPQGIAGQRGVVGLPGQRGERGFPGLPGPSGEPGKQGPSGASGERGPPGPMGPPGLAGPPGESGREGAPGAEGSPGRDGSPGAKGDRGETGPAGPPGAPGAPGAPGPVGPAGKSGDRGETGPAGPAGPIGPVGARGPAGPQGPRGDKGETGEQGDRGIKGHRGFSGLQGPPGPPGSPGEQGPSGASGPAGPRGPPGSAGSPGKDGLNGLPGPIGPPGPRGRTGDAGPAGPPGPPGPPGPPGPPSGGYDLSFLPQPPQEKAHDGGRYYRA
T2 sequence (P02465 80-1117 limits assumed): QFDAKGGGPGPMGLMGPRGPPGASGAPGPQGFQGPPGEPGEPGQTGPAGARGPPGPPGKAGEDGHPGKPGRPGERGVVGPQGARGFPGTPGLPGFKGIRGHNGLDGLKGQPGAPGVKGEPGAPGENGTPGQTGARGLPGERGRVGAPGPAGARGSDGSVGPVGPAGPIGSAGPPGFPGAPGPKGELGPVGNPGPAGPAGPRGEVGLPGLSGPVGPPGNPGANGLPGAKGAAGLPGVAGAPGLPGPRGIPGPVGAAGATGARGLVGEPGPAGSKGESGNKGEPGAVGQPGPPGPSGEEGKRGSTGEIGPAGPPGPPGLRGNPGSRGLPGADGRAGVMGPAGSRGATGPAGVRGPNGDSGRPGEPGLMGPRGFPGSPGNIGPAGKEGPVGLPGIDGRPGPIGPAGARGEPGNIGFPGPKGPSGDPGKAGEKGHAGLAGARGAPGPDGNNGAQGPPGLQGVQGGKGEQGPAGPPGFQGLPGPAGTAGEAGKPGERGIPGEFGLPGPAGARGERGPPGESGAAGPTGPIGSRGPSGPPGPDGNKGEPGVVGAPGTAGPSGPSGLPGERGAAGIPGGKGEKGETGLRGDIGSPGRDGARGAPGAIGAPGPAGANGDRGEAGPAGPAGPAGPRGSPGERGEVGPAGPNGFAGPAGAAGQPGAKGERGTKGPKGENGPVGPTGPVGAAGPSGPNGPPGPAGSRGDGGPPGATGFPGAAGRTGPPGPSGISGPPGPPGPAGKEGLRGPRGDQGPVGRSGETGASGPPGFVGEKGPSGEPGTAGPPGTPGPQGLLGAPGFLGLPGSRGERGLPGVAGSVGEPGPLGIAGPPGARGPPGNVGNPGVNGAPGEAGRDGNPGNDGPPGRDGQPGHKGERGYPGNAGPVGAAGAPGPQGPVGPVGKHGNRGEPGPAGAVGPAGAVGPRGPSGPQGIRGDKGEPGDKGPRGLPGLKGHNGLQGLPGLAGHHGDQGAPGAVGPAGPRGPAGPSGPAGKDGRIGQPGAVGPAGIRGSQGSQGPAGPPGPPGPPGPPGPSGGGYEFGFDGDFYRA
T1 sequence (P02453 162-1217 limits assumed): as the sequence (P02453 162-1217 limits assumed) above
T1 sequence (P02465 80-1117 limits assumed): as the sequence (P02465 80-1117 limits assumed) above
pre-established 1 mg/mL collagen networks, sequence (P02453 162-1217 limits assumed): as the sequence (P02453 162-1217 limits assumed) above
pre-established 1 mg/mL collagen networks, sequence (P02465 80-1117 limits assumed): as the sequence (P02465 80-1117 limits assumed) above

| Structure (SMILES) | critical concentration at which collagen assembly was completely inhibited [1] [M] | effect on collagen assembly kinetics and ODmax [1] | lag time (lag phase at 30% assembly) [1] [min] | effect on collagen assembly [1] | Rates of Collagen Assembly (KA), 30% to 70% [1, 8] [% per second] | Rates of Collagen Assembly (KA), 30% to 70% [1, 9] [% per second] | Rates of Collagen Assembly (KA), 30% to 70% [1, 10] [% per second] | Rates of Collagen Assembly (KA), 30% to 70% [1, 11] [% per second] | Baseline absorbance ([2]; 0.125M saccharide) | Baseline absorbance ([2]; 0.25M saccharide) | Baseline absorbance ([2]; 0.5M saccharide) | Pearson's correlation coefficient (PCC) of incorporated A488-collagen with pre-established network [3] | change in the collagen network under inverted microscope [4] | solubility [5] [mM] | Rates of Collagen Assembly (KA), 30% to 70% ([1]; collagen 0.5 mg/mL, 0.5M saccharide) [% per second] | Rates of Collagen Assembly (KA), 30% to 70% ([1]; collagen 1 mg/mL, 0.5M saccharide) [% per second] | Baseline absorbance ([2]; 1M saccharide) | pKa [6] | solubility [7] [mM] |
| --- | --- | --- | --- | --- | --- | --- | --- | --- | --- | --- | --- | --- | --- | --- | --- | --- | --- | --- | --- |
| O=C[C@H](O)[C@@H](O)[C@@H](O)[C@H](O)CO [Gal, D(+)-galactose] | 0.5 | a delay in the lag phase and growth phase and an increase in the maximum absorbance (ODmax) | 15 ± 0.6 | completely inhibited collagen assembly | 14.28 ± 1.48 | 7.22 ± 0.89 | 28.71 ± 1.54 | 15.96 ± 1.39 | 0.041 ± 0.001 | 0.043 ± 0.001 | 0.044 ± 0.001 | 0.53±0.11 | minimal to no change | ~2000 (≈ 360 mg/mL) |  |  |  |  |  |
| CC(=O)N[C@H]1C(O)O[C@H](CO)[C@@H](O)[C@@H]1O (stereo partly drawn) [GlcNAc, N-acetyl-D-glucosamine] | 0.5 | a delay in the lag phase and growth phase and an increase in the maximum absorbance (ODmax) | 16 ± 2.5 |  | 13.32 ± 0.63 | 6.77 ± 0.31 | 17.91 ± 1.52 | 8.27 ± 0.54 | 0.061 ± 0.001 | 0.074 ± 0.001 | 0.105 ± 0.001 | 0.66±0.10 |  | ~1000 (≈ 221 mg/mL) |  |  |  |  |  |
| CC(=O)O [acetic acid, reference compound] |  |  |  | little impact on the early kinetics but significantly reduced the steady-state absorbance |  |  |  |  |  |  |  |  |  |  |  |  |  |  |  |
| O.O=C[C@H](O)[C@@H](O)[C@H](O)[C@H](O)C(=O)[O-].[Na+] [GlucA, D-glucuronic acid sodium salt monohydrate] | 1 |  |  |  |  | 6.84 ± 0.47 |  | 13.83 ± 1.10 |  | 0.063 ± 0.000 | 0.082 ± 0.001 | 0.50±0.11 |  |  | 10.69 ± 0.53 | 40.64 ± 2.59 | 0.120 ± 0.000 | 3.2 | ~2000 |
